Assay results from patent US20140127185A1, “METHODS AND COMPOSITIONS USING NEUROPROTECTIVE STEROIDS AND THROMBOLYTIC AGENTS” (priority 2012, published 2014).

How the values were obtained:
[1] = system: Male Sprague Dawley (SD) rats subjected to focal ischemia; assay: Focal ischemia with delayed tPA in rats: cerebral hemorrhage, infarct volume, brain swelling; format: in vivo, rat; details: 24 hours post-stroke; tPA 5 mg/kg via femoral vein at 4.5 hours; progesterone i.p. at 2 hours
Method: 2,3,5-tripheynltetrazolium (TTC)-stained brain sections are used for quantification of intracerebral hemorrhage with a spectrophotometric hemoglobin assay. Samples typically are collected 19.5 hours after injury. The brain tissue is homogenized in 2 ml 0.05 M tris buffered saline and tween (TBS-T) followed by a 30-minute centrifugation (12,000 rpm) and re-centrifugation for 15-minutes at 10,000 rpm. Then, 200 μl reagent (QuantiChrom™ Hemoglobin Assay Kit; BioAssay Systems) is added to a 50 μl supernatant. Optical density is measured at 405 nm with a spectrophotometer.
Brain edema/swelling are estimated by measuring the hemispheric areas of each 2-mm thick brain slices using Image J software (NIH, Bethesda, […]., USA), typically 24 hours after MCAO. Edema formation is calculated as hemispheric enlargement and expressed as a percentage of the normal areas in the contralateral hemisphere.
Male Sprague Dawley (SD) rats were subjected to focal ischemia, reperfused at 4.5 hours and then treated with tPA (5 mg/kg body weight; via femoral vein) at 4.5 hours or by combined progesterone (given by intraperitoneal injection at 2 hours) plus tPA (given at 4.5 hours). Rats were killed at 24 hours after ischemia, brains were perfused with saline, and coronal sections (2 mm thick) were stained with 2,3,5-triphenyltetrazolium chloride to quantify infarct volumes. […]

[2] = system: claudin-5; assay: Tight junction protein Western blot in vivo (ischemic cortices): claudin-5; design: species or system rat; details: 24 hours after ischemia, compared to stroke without tPA / with tPA
Method: Peri-infarct cortical tissue is processed for protein analysis. Tissues are homogenized in T-per (Pierce, Rockford, Ill.) containing protease inhibitor cocktail (P8340, Sigma). Homogenates are centrifuged for 15 minutes at 13,000 g. 40 μg of total protein is separated on 8-12% gel and transferred onto polyvinylidene difluoride (Millipore, Mass., USA; PVDF) membranes at 300 mA for 2 hours. To measure the level of immunoglobulin, the membranes were incubated overnight at 4° C. with anti Rat IgG conjugated to biotin. bEND 3 cells are subjected to hypoxia/reperfusion for 9 hours and then lysed on ice in 100 μl of RIPA buffer. Cell lysated are boiled and then electrophoresed in 12% SDS-PAGE acrylamide gels, transferred onto PVDF membranes, and incubated for 1 hour in TBS-T (tris-buffered saline and 0.1% Tween 20) containing 5% bovine serum albumin (BSA). Membranes are then incubated overnight at 4° C. with primary antibodies against occludin (Invitrogen, Calif., USA; 1:1000), claudin-5 (Invitrogen; 1:1000), and ZO-1 (Invitrogen; 1:1000), washed in TBS-T, and incubated for 1 hour at room temperature with corresponding peroxidase-conjugated secondary antibodies (1:5000; KPL, Gaithersburg, Md.). All blots are stripped and re-incubated with β-actin antibodies (1:5000, Sigma) as a loading control. […] Intensity of the bands is measured by an Image Gauge version. […]

[3] = system: MMP-9; assay: Active MMP-9 fluorometric FRET peptide assay of ischemic cortex lysates; format: in vivo, rat; details: 24 hours after ischemia; tPA at 4.5 hours; vs control and tMCAO groups
Method: A Fluorimetric SensoLyte™ 490 kit (AnaSpec Corp., San Jose, Calif. USA) is used to quantify the specific enzymetic activity of active MMP-9 by using a fluorescence resonance energy transfer peptide containing a fluorescent donor and quenching acceptor (Lin, Hou et al. 2008). The samples (100 μg) are placed in a 96-well plate containing 50 μl of assay buffer. The proteolytic resonance energy transfer peptide is expressed as a fold change in fluorescence intensity at excitation of 355 nm/emission of 460 nm.
For in vivo evaluation, Male SD rats were subjected to MCAO, reperfused at 4.5 hours and then treated with tPA only (5 mg/kg body weight via femoral vein) at 4.5 hours post-stroke or with progesterone (intraperitoneally) at 2 hours post-stroke plus tPA at 4.5 hours post-stroke. Rats were killed at 24 hours post-ischemia and their brains perfused for evaluation of cerebral hemorrhage, brain swelling, BBB permeability, MMP-9 activity, and the alteration of tight junction proteins.
To directly determine MMP-9 activity after ischemia, proteolytic activity of MMP-9 was measured using a fluorescence resonance energy transfer peptide. […] Consistent with the Western blot results, exposure of cells to H/R and tPA for 9 hours reduced the detected levels of occludin, as compared to control bEND 3 cells, while MMP-9 levels were increased in cells exposed to H/R and tPA for 9 hours.

[4] = system: claudin-5; assay: Claudin-5 in H/R-treated bEND3 cells (Western blot); format: cell-based, mouse; details: tPA with H/R
Method: An immortalized mouse brain endothelial cell line (bEND 3) is purchased from American Type Culture Collection (ATCC, VA, USA) and cultured in Dulbecco's modified Eagle Medium (DMEM, ATCC) supplemented with 10% fetal bovine serum (ATCC). bEND 3 cells are seeded onto the luminal side of a filter (0.4 μm pore size; Corning, Lowell, MCA) coated with fibronectin (5 μg/ml) in 12-well plates for a transendothelial electrical resistance (TEER) test; and in 100-mm dishes for Western blot studies. Cell cultures are incubated at 37° C. in a 5%/95% mixture of CO2 and atmospheric air, and the medium is replaced every 3 days.
Peri-infarct cortical tissue is processed for protein analysis. Tissues are homogenized in T-per (Pierce, Rockford, Ill.) containing protease inhibitor cocktail (P8340, Sigma). Homogenates are centrifuged for 15 minutes at 13,000 g. […] Intensity of the bands is measured by an Image Gauge version. […]
To mimic ischemia-like conditions in vitro, immortalized mouse brain endothelial (bEND3) cells were exposed to 6 hours of hypoxia and 3 hours of reoxygeneation with or without the administration of tPA at a dose of 20 μ/ml. […] BBB integrity was evaluated by transendothelial membrane electrical resistance (TEER) measurement, MMP-9 activity, and the alteration of tight junction proteins following in vitro H/R injury.

Substance: tPA: serum protease acting specifically on serum plasminogen; also known as alteplase, available commercially as Activase
- Hemorrhage volume (hemoglobin in perfused brain) [1]: induced cerebral hemorrhage
- Lower molecular weight 17-kDa claudin-5 fragments [2]: increase
- MMP-9 activity (FRET peptide) [3]: significantly higher
- Expression of 23-kDa claudin-5 (Western blot) [4]: markedly decreased
